From PubChem BioAssay (NCI)
“And” between values parts separate entries of the source, which are not always exact repeats. Equal entries are not always repeated.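 GI50: concentration for 50% inhibition of growth. At the TGI there is no net growth.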

Columns and labels:
Test in all cases: NCI-60 cell line screen, 384-well format
NCI-H322M lung = tested on: NCI-H322M lung
HOP-62 NSCLC = tested on: HOP-62 NSCLC
SNB-19 CNS = tested on: SNB-19 CNS
OVCAR-5 ovarian = tested on: OVCAR-5 ovarian
UACC-62 melanoma = tested on: UACC-62 melanoma
LOX IMVI melanoma = tested on: LOX IMVI melanoma
NCI-H226 lung = tested on: NCI-H226 lung
MOLT-4 leukemia = tested on: MOLT-4 leukemia
NCI-H23 lung = tested on: NCI-H23 lung
SR leukemia = tested on: SR leukemia
SK-OV-3 ovarian = tested on: SK-OV-3 ovarian
HCT-15 colon = tested on: HCT-15 colon
HL-60(TB) leukemia = tested on: HL-60(TB) leukemia
RPMI-8226 leukemia = tested on: RPMI-8226 leukemia
SK-MEL-5 melanoma = tested on: SK-MEL-5 melanoma
OVCAR-8 ovarian = tested on: OVCAR-8 ovarian
KM12 colon = tested on: KM12 colon
SK-MEL-28 melanoma = tested on: SK-MEL-28 melanoma
TK-10 renal = tested on: TK-10 renal
HCT-116 colon = tested on: HCT-116 colon
OVCAR-3 ovarian = tested on: OVCAR-3 ovarian
HCC-2998 colon = tested on: HCC-2998 colon
COLO 205 colon = tested on: COLO 205 colon
A498 renal = tested on: A498 renal
SW-620 colon = tested on: SW-620 colon
MDA-MB-435 melanoma = tested on: MDA-MB-435 melanoma
BT-549 breast = tested on: BT-549 breast
SF-539 CNS = tested on: SF-539 CNS
NCI-H460 NSCLC = tested on: NCI-H460 NSCLC
CAKI-1 renal = tested on: CAKI-1 renal
IGROV1 ovarian = tested on: IGROV1 ovarian
SF-295 CNS = tested on: SF-295 CNS
NCI-H522 lung = tested on: NCI-H522 lung
RXF 393 renal = tested on: RXF 393 renal
SN12C renal = tested on: SN12C renal
SNB-75 CNS = tested on: SNB-75 CNS
CCRF-CEM leukemia = tested on: CCRF-CEM leukemia
HT29 colon = tested on: HT29 colon
UACC-257 melanoma = tested on: UACC-257 melanoma
T-47D breast = tested on: T-47D breast
DU-145 prostate = tested on: DU-145 prostate
U251 glioblastoma = tested on: U251 glioblastoma
SF-268 CNS = tested on: SF-268 CNS
ACHN renal = tested on: ACHN renal
K-562 leukemia = tested on: K-562 leukemia
HOP-92 NSCLC = tested on: HOP-92 NSCLC
MCF7 breast = tested on: MCF7 breast
A549 NSCLC = tested on: A549 NSCLC
MDA-MB-468 breast = tested on: MDA-MB-468 breast
MALME-3M melanoma = tested on: MALME-3M melanoma
PC-3 prostate = tested on: PC-3 prostate
OVCAR-4 ovarian = tested on: OVCAR-4 ovarian
786-0 renal = tested on: 786-0 renal
EKVX NSCLC = tested on: EKVX NSCLC
NCI/ADR-RES ovarian = tested on: NCI/ADR-RES ovarian
HS 578T breast = tested on: HS 578T breast
MDA-MB-231 breast = tested on: MDA-MB-231 breast
UO-31 renal = tested on: UO-31 renal
M14 melanoma = tested on: M14 melanoma

## Cn1cc(-c2nc(N[C@@H]3CCCC[C@@H]3N)c(F)c3c2C(=O)NC3)cn1
NCI-H322M lung
  GI50: 15.5 µM and 28.7 µM
  TGI: 38.9 µM and > 100 µM
HOP-62 NSCLC
  GI50: 2.31 µM and 4.56 µM
  TGI: 9.99 µM and 16.5 µM
SNB-19 CNS
  GI50: 17.8 µM and 19.4 µM
  TGI: 33.7 µM and 39.1 µM
OVCAR-5 ovarian
  GI50: 6.09 µM
  TGI: 21.6 µM
UACC-62 melanoma
  GI50: 13.3 µM
  TGI: 39.5 µM
LOX IMVI melanoma
  GI50: 1.85 µM and 3.58 µM
  TGI: 3.98 µM and 12.7 µM
NCI-H226 lung
  GI50: 2.08 µM and 4.38 µM
  TGI: 7.05 µM and 27.9 µM
MOLT-4 leukemia
  GI50: 0.299 µM and 1.14 µM
NCI-H23 lung
  GI50: 2.17 µM and 4.29 µM
  TGI: 13 µM and 17.5 µM
SR leukemia
  GI50: 0.535 µM and 0.17 µM
  TGI: 1.78 µM and 0.447 µM
SK-OV-3 ovarian
  GI50: 2.07 µM and 10.8 µM
  TGI: 21.5 µM and 65.8 µM
HCT-15 colon
  GI50: 5.33 µM and 10.6 µM
  TGI: 28.3 µM and > 100 µM
HL-60(TB) leukemia
  GI50: 3.18 µM and 2.76 µM
  TGI: 14.7 µM and 13.3 µM
RPMI-8226 leukemia
  GI50: 0.537 µM and 1.52 µM
  TGI: 2.19 µM and 4.13 µM
SK-MEL-5 melanoma
  TGI: 17.8 µM and 34.5 µM
OVCAR-8 ovarian
  GI50: 6.08 µM and 12.2 µM
  TGI: 19.4 µM and 25.2 µM
KM12 colon
  GI50: 0.339 µM and 0.445 µM
  TGI: 25.2 µM and 45.1 µM
SK-MEL-28 melanoma
  GI50: 10.2 µM and 11.2 µM
  TGI: 66.1 µM and > 100 µM
TK-10 renal
  GI50: 3.87 µM and 12.1 µM
  TGI: 17.5 µM and 26.9 µM
HCT-116 colon
  GI50: 2.04 µM and 2.98 µM
  TGI: 17.3 µM and 17.9 µM
OVCAR-3 ovarian
  GI50: 9.28 µM and 9.39 µM
  TGI: 24.7 µM and 34.3 µM
HCC-2998 colon
  TGI: 20.6 µM and 38.7 µM
COLO 205 colon
  GI50: 1.45 µM and 1.85 µM
  TGI: 2.9 µM and 3.53 µM
A498 renal
  GI50: 0.559 µM and 1.3 µM
  TGI: 10.4 µM and 8.94 µM
SW-620 colon
  GI50: 2.37 µM and 5.69 µM
  TGI: 7.78 µM and 25.8 µM
MDA-MB-435 melanoma
  GI50: 4.49 µM and 6.35 µM
  TGI: > 100 µM
BT-549 breast
  GI50: 2.17 µM and 5.01 µM
  TGI: 5.18 µM and 15.9 µM
SF-539 CNS
  GI50: 1.35 µM and 3.09 µM
  TGI: 3.56 µM and 13 µM
NCI-H460 NSCLC
  GI50: 2.61 µM and 3.15 µM
  TGI: 13.5 µM and 14.3 µM
CAKI-1 renal
  GI50: 3.22 µM and 4.17 µM
  TGI: 19.7 µM and 19.3 µM
IGROV1 ovarian
  GI50: 2.99 µM and 10.9 µM
  TGI: 28.9 µM and 90.9 µM
SF-295 CNS
  GI50: 0.675 µM and 3.12 µM
  TGI: 2.81 µM and 11.7 µM
NCI-H522 lung
  GI50: 1.64 µM and 3.56 µM
  TGI: 6.01 µM and 15.4 µM
RXF 393 renal
  GI50: 0.596 µM and 2.12 µM
  TGI: 3.57 µM and 13 µM
SN12C renal
  GI50: 2.09 µM and 1.95 µM
  TGI: 10.9 µM and 7.66 µM
SNB-75 CNS
  GI50: 1.88 µM and 5.16 µM
  TGI: 4.98 µM and 19.4 µM
CCRF-CEM leukemia
  GI50: 1.48 µM and 1.75 µM
  TGI: 2.97 µM and 3.26 µM
HT29 colon
  GI50: 4.79 µM and 7.58 µM
  TGI: 58.5 µM and 26.6 µM
UACC-257 melanoma
  GI50: 12.8 µM and 33.7 µM
  TGI: 33.4 µM and > 100 µM
T-47D breast
  GI50: 32.5 µM and 56.3 µM
  TGI: 85.3 µM and > 100 µM
DU-145 prostate
  GI50: 4.08 µM and 9.76 µM
  TGI: 30.8 µM and 38.1 µM
U251 glioblastoma
  GI50: 14.2 µM and 17.6 µM
  TGI: 27.9 µM and 32.8 µM
SF-268 CNS
  GI50: 2.79 µM and 9.19 µM
  TGI: 15.2 µM and 45.5 µM
ACHN renal
  GI50: 2 µM and 6.59 µM
  TGI: 59.2 µM and > 100 µM
K-562 leukemia
  GI50: 2.93 µM and 3.44 µM
  TGI: 14 µM and 18.6 µM
HOP-92 NSCLC
  GI50: 3.89 µM and 5.41 µM
  TGI: 15.6 µM and 18.3 µM
MCF7 breast
  GI50: 2.89 µM and 19.2 µM
  TGI: 36.5 µM and 81.2 µM
A549 NSCLC
  GI50: 4.08 µM and 6.73 µM
  TGI: 33.2 µM and 32.9 µM
MDA-MB-468 breast
  GI50: 3.08 µM and 4.3 µM
  TGI: 6.44 µM and 11.7 µM
MALME-3M melanoma
  GI50: 6.89 µM and 4.15 µM
  TGI: 22.2 µM and 26 µM
PC-3 prostate
  GI50: 9.39 µM and 15.4 µM
  TGI: 45.3 µM and 86.9 µM
OVCAR-4 ovarian
  GI50: 15.2 µM and 21.4 µM
  TGI: 30.5 µM and 43.7 µM
786-0 renal
  GI50: 5.53 µM and 4.81 µM
  TGI: 17.9 µM and 18.3 µM
EKVX NSCLC
  GI50: 5.37 µM and 12.8 µM
  TGI: 29.5 µM and 62.4 µM
NCI/ADR-RES ovarian
  GI50: 38.8 µM and > 100 µM
  TGI: > 100 µM
HS 578T breast
  GI50: 2.21 µM and 11 µM
  TGI: 12.1 µM and 25.5 µM
MDA-MB-231 breast
  GI50: 5 µM and 10.4 µM
  TGI: 17.7 µM and 22.9 µM
UO-31 renal
  GI50: 7.89 µM and 11 µM
  TGI: 20.5 µM and 23.2 µM
M14 melanoma
  GI50: 0.615 µM and 1.56 µM
  TGI: 25.7 µM and 14.5 µM
